Test results taken from patent US20250034264A1, “REGULATING T CELL IMMUNE RESPONSE THROUGH IGF-I RECEPTOR (IGF-1R)” (The Regents of the University of Michigan, priority 2021, published 2025).

Test system: fibrocytes
Assay: AIRE and thyroid autoantigen (Tg, TPO, NIS) mRNA expression
Assay type: cell-based, human
Conditions: 50 μg/mL 7-9 days; bTSH 5 mIU/mL 6 h; vs isotype control mAb
Protocol: FIGS. 9A-9D are graphs showing the effect of teprotumumab on bovine thyrotropin or thyroid-stimulating hormone (bTSH) induced thyroid specific genes thyroglobulin (Tg), sodium iodide symporter (NIS), thyroperoxidase (TPO), and autoimmune regulator protein (AIRE) in fibrocytes. Confluent fibrocyte cultures were treated with or without teprotumumab (50 μg/ml) and human Isotype IgG for 7-9 d, followed by bTSH (5 mIU/mL) for 6 h. Monolayers were washed with PBS and RNA was extracted and reverse transcribed. Harvested cDNA was subjected to quantitative real-time PCR for AIRE (FIG. 9A), Tg (FIG. 9B), TPO (FIG. 9C), and NIS (FIG. 9D) mRNA levels. Values were normalized to their respective GAPDH levels and are expressed as the mean f SD of three independent determinations. Experiments were repeated three times. *, P<0.05; **, p<0.01.
Real-time PCR Confluent fibrocyte and GD-OF cultures were incubated with bTSH (5 mIU/mL), teprotumumab (50 μg/mL) or linsitinib (1 μM) for the time intervals indicated, washed with PBS and RNA was extracted with the Aurum Total RNA Mini Kit (cat. #732-6820, Bio-Rad, Hercules, CA). Cellular RNA (2 μg) was reverse transcribed using QuantiTect Reverse Transcription kit (cat. #205314, Qiagen (Germantown, MD) and real-time PCR was performed using an Applied Biosystems instrument with QuantiTect SYBR Green PCR kit (cat. no. 204143; Qiagen, Frederick, MD). Primer sequences were as follows.

teprotumumab
inhibited: AIRE basal expression and induction by bTSH | NIS basal expression and induction by bTSH | TPO basal expression and induction by bTSH | Tg basal expression and induction by bTSH
